Assay results published in patent US10882860B2, “Treatment of osteoarthritis” (Samumed, LLC, priority 2015, dated 2021).
Read-outs that look alike come from different tables or passages of the source.

Key:
[1] = tested on: Human MSCs; assay: Chondrogenesis induction, Rhodamine B and Nile Red staining; assay type: cell-based
Experimental: Human MSCs were plated in 96-well plates in chondrogenic induction medium (Lonza; DMEM, dexamethasone, ascorbate, insulin-transferrin-selenium [ITS supplement], gentamycin-amphotericin [GA-1000], sodium pyruvate, proline and L-glutamine) and treated with the compound of Formula (I) in DMSO or TGFβ3 (20 μg/mL) as a positive control. Cells were incubated at 37° C., 5% CO2 for either 7 or 21 days, with media changes every 5 days. The cells were fixed using 4% formaldehyde (Electron Microscopy Sciences), and stained with 2 μg/mL Rhodamine B (Sigma-Aldrich) and 20 μM Nile Red (Sigma-Aldrich) (Johnson et al. (2012) Science 336(6082):717-721). The nodules were imaged (25 images per well for 96 well plates at 10× magnification) by excitation at 531 nm and emission at 625 nm and quantified using the Celllnsight CX5 (Thermo Scientific). The number of nodules in each well was normalized to the average of 6 DMSO treated wells on the same plate using Excel (Microsoft Inc.). The normalized averages (fold change over DMSO) of 6 replicate wells for each compound concentration were calculated.

[2] = tested on: protease expression (MMP1, MMP3, MMP13); assay: Inhibition of protease release (qRT-PCR, TNF-α + Oncostatin M stimulated chondrocytes); assay type: cell-based, human; settings: 72 hours, FIGS. 19A-C
Experimental: Human MSCs were plated in 10 cm dishes in chondrogenic induction medium (Lonza; DMEM, dexamethasone, ascorbate, insulin-transferrin-selenium [ITS supplement], gentamycin-amphotericin [GA-1000], sodium pyruvate, proline and L-glutamine) and treated with TGF-β3 (20 μg/mL) to induce chondrogenic differentiation. Cells from 4 dishes were pooled and re-plated in 24-well plates in Chondrogenic Induction Medium and treated with various concentrations of the compound of Formula (I). 4 hours later, MMP production was stimulated by adding TNF-α (20 μg/mL)+Oncostatin M (10 ng/mL) and cells were incubated at 37° C., 5% CO2 for 72 hours. Cells were then pelleted and washed, and total RNA was isolated and purified using RNeasy Plus Mini Kit (Qiagen). cDNA was synthesized from 1 μg of total RNA using QuantiTect Reverse Transcription kit (Qiagen). qRT-PCR was performed with QuantiTect SYBR Green PCR Kit (Qiagen) and gene-specific primers, using CFX384 thermal cycler (Biorad). Transcripts were quantitated by comparative Ct method, and normalized to endogenous controls, β-actin and GAPDH. Fold changes were normalized to unstimulated cells. […] FIG. 19A depicts MMP1 production. FIG. 19B depicts MMP3 production. FIG. 19C depicts MMP13 production.

[3] = Rat pharmacokinetics after IA injection (plasma, knee joint); assay type: in vivo, Sprague Dawley rats; settings: for concentration at 30 day / concentration at 90 day / concentration at 180 day: Sprague Dawley; for concentration at 30 day / concentration at 90 day / concentration at 180 day / Formula (I) concentration, Bone / Formula (I) concentration, Cartilage / Formula (I) concentration, Plasma: rats, single IA; for Formula (I) concentration, Plasma: QL = 5 ng/mL
Experimental: In rats and dogs, the pharmacokinetic profile, safety profile, tissue distribution and cartilage regeneration following a single intra-articular (IA) injection of the compound of Formula (I) in the plasma and the knee joint (cartilage and bone) was determined. The compound of Formula (I) (Form 1) was formulated as a suspension composition in 0.5% CMC/0.05% Polysorbate 80 in PBS.
The pharmacokinetics of the compound of Formula (I) in rats was studied. Three Sprague Dawley rats were each injected with a single intra-articular (IA) injection (one IA injection per knee) of a suspension composition of the compound of Formula (I) (Form 1) at 0.3, 1, 3 and 9 μg/knee. Plasma was collected beginning at 15 minutes post-dose on Day 1 and the knee joint was collected at Days 30, 90, and 180 post-IA administration. The bone and cartilage tissues from the knee joint were segregated and concentrations analyzed. The compound was retained in the knee joint above the target concentration level (˜30 nM, the intended clinical therapeutic dose) for greater than 180 days and was undetectable in the plasma at all time points.

[4] = tested on: rat models of osteoarthritis (ACLT and pMMx); assay: Efficacy of suspension compositions compared to a solution composition in rat OA model; assay type: in vivo, rats
Experimental: The efficacy of suspension compositions of the compound of Formula (I) (Form 1) as compared to a solution composition of the compound of Formula (I) in rat models of osteoarthritis (OA) was determined using a solution (final IA dose of 3 μg solution) and 0.1 μg and 0.3 μg suspension compositions of the compound of Formula (I) (Form 1).
The rats were treated with final dose levels of either a 0.1 μg or 0.3 μg suspension or a 3 μg solution of the compound of Formula (I). Histology score of cartilage integrity in the knee was the readout.

In the case of CC(C)CC(=O)Nc1cncc(-c2ccc3[nH]nc(-c4nc5c(-c6cccc(F)c6)cncc5[nH]4)c3c2)c1 [compound of Formula (I)], the chondrocyte colonies/well ([1]; 1.88 nM to 30 nM, FIG. 17) is reported as “dose-dependent chondrogenesis”, the “chondrogenesis (Nile Red and Rhodamine B staining)” value ([1]; human MSCs, 7 or 21 days, fold change over DMSO, FIGS. 16A, 16B) is reported as “dose dependent increase in chondrogenesis” and the “protease expression (MMP1, MMP3, MMP13)” value [2] is reported as “dose-dependent inhibition”. For the same compound, the concentration at 30 day ([3]; rat, bone, other: intra-articular injection, 1 μg/knee, Day 30, read-out: Formula (I) concentration, Bone) was 196 ng/g, the concentration at 90 day ([3]; rat, bone, other: intra-articular injection, 1 μg/knee, Day 90, read-out: Formula (I) concentration, Bone) was 44.4 ng/g and the concentration at 180 day ([3]; rat, bone, other: intra-articular injection, 1 μg/knee, Day 180, read-out: Formula (I) concentration, Bone) was 46.4 ng/g. It also gave a concentration at 30 day ([3]; rat, bone, other: intra-articular injection, 3 μg/knee, Day 30, read-out: Formula (I) concentration, Bone) of 738 ng/g, a concentration at 90 day ([3]; rat, bone, other: intra-articular injection, 3 μg/knee, Day 90, read-out: Formula (I) concentration, Bone) of 166 ng/g and a concentration at 180 day ([3]; rat, bone, other: intra-articular injection, 3 μg/knee, Day 180, read-out: Formula (I) concentration, Bone) of 15 ng/g. It also gave a concentration at 30 day ([3]; rat, bone, other: intra-articular injection, 9 μg/knee, Day 30, read-out: Formula (I) concentration, Bone) of 3290 ng/g, a concentration at 180 day ([3]; rat, bone, other: intra-articular injection, 9 μg/knee, Day 180, read-out: Formula (I) concentration, Bone) of 67 ng/g and a concentration at 30 day ([3]; rat, bone, other: intra-articular, 0.3 μg/knee, Day 30, read-out: Formula (I) concentration, Bone) of 25.8 ng/g. For the same compound, the concentration at 90 day ([3]; rat, bone, other: intra-articular, 0.3 μg/knee, Day 90, read-out: Formula (I) concentration, Bone) was 6.56 ng/g, the concentration at 180 day ([3]; rat, bone, other: intra-articular, 0.3 μg/knee, Day 180, read-out: Formula (I) concentration, Bone) was 19 ng/g and the concentration at 30 day ([3]; rat, cartilage, other: intra-articular injection, 0.3 μg/knee, Day 30, read-out: Formula (I) concentration, Cartilage) was 263 ng/g. It also gave a concentration at 90 day ([3]; rat, cartilage, other: intra-articular injection, 0.3 μg/knee, Day 90, read-out: Formula (I) concentration, Cartilage) of 78 ng/g, a concentration at 180 day ([3]; rat, cartilage, other: intra-articular injection, 0.3 μg/knee, Day 180, read-out: Formula (I) concentration, Cartilage) of 69.6 ng/g and a concentration at 30 day ([3]; rat, cartilage, other: intra-articular injection, 3 μg/knee, Day 30, read-out: Formula (I) concentration, Cartilage) of 2570 ng/g. It also gave a concentration at 90 day ([3]; rat, cartilage, other: intra-articular injection, 3 μg/knee, Day 90, read-out: Formula (I) concentration, Cartilage) of 645 ng/g, a concentration at 180 day ([3]; rat, cartilage, other: intra-articular injection, 3 μg/knee, Day 180, read-out: Formula (I) concentration, Cartilage) of 717 ng/g and a concentration at 30 day ([3]; rat, cartilage, other: intra-articular injection, 9 μg/knee, Day 30, read-out: Formula (I) concentration, Cartilage) of 3560 ng/g. For the same compound, the concentration at 180 day ([3]; rat, cartilage, other: intra-articular injection, 9 μg/knee, Day 180, read-out: Formula (I) concentration, Cartilage) was 224 ng/g, the concentration at 30 day ([3]; rat, cartilage, other: intra-articular, 1 μg/knee, Day 30, read-out: Formula (I) concentration, Cartilage) was 39 ng/g and the concentration at 90 day ([3]; rat, cartilage, other: intra-articular, 1 μg/knee, Day 90, read-out: Formula (I) concentration, Cartilage) was 243 ng/g. The concentration at 180 day ([3]; rat, cartilage, other: intra-articular, 1 μg/knee, Day 180, read-out: Formula (I) concentration, Cartilage) was 201 ng/g, the plasma level ([3]; rat, all time points) was “undetectable” and the “time retained in the knee joint above the target concentration level (˜30 nM)” value ([3]; rat, single IA 0.3, 1, 3 and 9 μg/knee) was “greater than 180 days”. The “Formula (I) concentration, Bone” value ([3]; 0.3 μg/knee, Day 30) was “[51 nM]”, the “Formula (I) concentration, Cartilage” value ([3]; 0.3 μg/knee, Day 30) was “[521 nM]” and the “Formula (I) concentration, Plasma” value ([3]; 0.3 μg/knee, Day 30) was “BQL”. For the same compound, the “Formula (I) concentration, Bone” value ([3]; 0.3 μg/knee, Day 90) was “[13 nM]”, the “Formula (I) concentration, Cartilage” value ([3]; 0.3 μg/knee, Day 90) was “[154 nM]” and the “Formula (I) concentration, Plasma” value ([3]; 0.3 μg/knee, Day 90) was “BQL”. The “Formula (I) concentration, Bone” value ([3]; 0.3 μg/knee, Day 180) was “[38 nM]”, the “Formula (I) concentration, Cartilage” value ([3]; 0.3 μg/knee, Day 180) was “[138 nM]” and the “Formula (I) concentration, Plasma” value ([3]; 0.3 μg/knee, Day 180) was “BQL”. The “Formula (I) concentration, Bone” value ([3]; 1 μg/knee, Day 30) was “[388 nM]”, the “Formula (I) concentration, Cartilage” value ([3]; 1 μg/knee, Day 30) was “[774 nM]” and the “Formula (I) concentration, Plasma” value ([3]; 1 μg/knee, Day 30) was “BQL”. The “Formula (I) concentration, Bone” value ([3]; 1 μg/knee, Day 90) was “[88 nM]”, the “Formula (I) concentration, Cartilage” value ([3]; 1 μg/knee, Day 90) was “[481 nM]” and the “Formula (I) concentration, Plasma” value ([3]; 1 μg/knee, Day 90) was “BQL”. The “Formula (I) concentration, Bone” value ([3]; 1 μg/knee, Day 180) was “[92 nM]”, the “Formula (I) concentration, Cartilage” value ([3]; 1 μg/knee, Day 180) was “[398 nM]” and the “Formula (I) concentration, Plasma” value ([3]; 1 μg/knee, Day 180) was “BQL”. The “Formula (I) concentration, Bone” value ([3]; 3 μg/knee, Day 30) was “[1461 nM]”, the “Formula (I) concentration, Cartilage” value ([3]; 3 μg/knee, Day 30) was “[5097 nM]” and the “Formula (I) concentration, Plasma” value ([3]; 3 μg/knee, Day 30) was “BQL”. The “Formula (I) concentration, Bone” value ([3]; 3 μg/knee, Day 90) was “[329 nM]”, the “Formula (I) concentration, Cartilage” value ([3]; 3 μg/knee, Day 90) was “[1277 nM]” and the “Formula (I) concentration, Plasma” value ([3]; 3 μg/knee, Day 90) was “BQL”. For the same compound, the “Formula (I) concentration, Bone” value ([3]; 3 μg/knee, Day 180) was “[313 nM]”, the “Formula (I) concentration, Cartilage” value ([3]; 3 μg/knee, Day 180) was “[1420 nM]” and the “Formula (I) concentration, Plasma” value ([3]; 3 μg/knee, Day 180) was “BQL”. The “Formula (I) concentration, Bone” value ([3]; 9 μg/knee, Day 30) was “[6520 nM]”, the “Formula (I) concentration, Cartilage” value ([3]; 9 μg/knee, Day 30) was “[7055 nM]” and the “Formula (I) concentration, Plasma” value ([3]; 9 μg/knee, Day 30) was “BQL”. For the same compound, the “Formula (I) concentration, Plasma” value ([3]; 9 μg/knee, Day 90) was “BQL”, the “Formula (I) concentration, Bone” value ([3]; 9 μg/knee, Day 180) was “[1335 nM]” and the “Formula (I) concentration, Cartilage” value ([3]; 9 μg/knee, Day 180) was “[4437 nM]”. The “Formula (I) concentration, Plasma” value ([3]; 9 μg/knee, Day 180) was “BQL”, the “histology score of cartilage integrity in the knee (vs. vehicle)” value (“histology score … (vs. vehicle)” below) ([4]; 0.1 μg suspension, 3 months, did not reach statistical significance) was “beneficial effect” and the “histology score … (vs. vehicle)” value ([4]; 0.3 μg suspension, 3 months) was “significant difference”. The “histology score … (vs. vehicle)” value ([4]; 3 μg solution, 2 months, did not reach statistical significance) was “beneficial effect”.
